Measured values published in US9060529B2, “Method for treatment of lacto-N-biose-containing solution” (Morinaga Milk Industry Co., Ltd., priority 2010, dated 2015).

Legend:
[1] = Test Example 1: effect of pH on stability of LNB upon heating (2% LNB in buffer, TLC of decomposed products); assay type: physicochemical; details: 90° C. for 60 minutes
Protocol: Samples of the LNB powder prepared in the above Production Example 1 were dissolved at a concentration of 2% (by mass, this also applies to all subsequent concentration values) in a 0.1 M citrate buffer solution (pH: 3.0 to 6.0), a 0.1 M phosphate buffer solution (pH: 6.0 to 8.0) or a 0.1 M glycine buffer solution (pH: 8.5 to 10.5), thus preparing samples (liquid compositions containing LNB) 1 to 16 having pH values at intervals of 0.5 across the entire pH range mentioned above.
A 5 mL sample of each of the prepared samples 1 to 16 was dispensed into a test tube and heated at 90° C. for 60 minutes.
Each of the heated samples was cooled to 15° C., and 1 μL was then spotted onto a silica gel thin layer chromatography (TLC) plate. The plate was developed using an 80% acetonitrile solvent, and was then immersed in a 5% sulfuric acid solution and colorized by heating in an oven. The existence or absence of decomposed or denatured products (N-acetylglucosamine dehydrate and galactose) and the amount of those decomposed or denatured products were evaluated visually to determine whether or not decomposition had occurred, and if so, the extent of that decomposition.

[2] = Test Example 3: effect of heating temperature and time on stability of LNB at various pH (2% LNB in buffer, TLC); assay type: physicochemical; parameters: key to extent of decomposition: −: no decomposition; ±: slight decomposition; +: partial decomposition; ++: majority decomposition; +++: almost total decomposition; details: for stability of LNB (decomposition by TLC): 65-120° C., 5-60 minutes
Protocol: Samples of the LNB powder prepared in the above Production Example 1 were dissolved at a concentration of 2% in a 0.1 M citrate buffer solution (pH: 5.5, 5.0, 4.0, 3.0) to prepare a series of liquid compositions containing LNB. Further, a portion of the LNB solution having a pH of 3.0 was used to prepare solutions having a pH of 2.0 or 1.0 by adding 1 M hydrochloric acid.
In a separate preparation, a sample of the LNB powder was dissolved at a concentration of 2% in a 0.1 M phosphate buffer having a pH of 7.0 to prepare a liquid composition containing LNB.
Sets containing the liquid compositions containing LNB at each pH value were each heated at a predetermined temperature (65, 70, 80, 90, 100 or 120° C.) for a predetermined period of time (5, 10, 20, 30 or 60 minutes).
Each of the heated liquid compositions containing LNB was cooled, and the same method as that described for Test Example 1 was used to determine whether or not decomposition had occurred, and if so, the extent of that decomposition. Based on the results, the extent of decomposition was evaluated against the criteria listed below.
• − no decomposition • ± slight decomposition • + partial decomposition • ++ majority decomposition • +++ almost total decomposition 2) Test Results: […]

extent of decomposition ([2]; pH 4.0, 65° C., 5 minutes): −
extent of decomposition ([2]; pH 4.0, 65° C., 10 minutes): −
extent of decomposition ([2]; pH 4.0, 65° C., 20 minutes): −
extent of decomposition ([2]; pH 4.0, 65° C., 30 minutes): −
extent of decomposition ([2]; pH 4.0, 65° C., 60 minutes): −
extent of decomposition ([2]; pH 4.0, 70° C., 5 minutes): −
extent of decomposition ([2]; pH 4.0, 70° C., 10 minutes): −
extent of decomposition ([2]; pH 4.0, 70° C., 20 minutes): −
extent of decomposition ([2]; pH 4.0, 70° C., 30 minutes): −
extent of decomposition ([2]; pH 4.0, 70° C., 60 minutes): −
extent of decomposition ([2]; pH 4.0, 80° C., 5 minutes): −
extent of decomposition ([2]; pH 4.0, 80° C., 10 minutes): −
extent of decomposition ([2]; pH 4.0, 80° C., 20 minutes): −
extent of decomposition ([2]; pH 4.0, 80° C., 30 minutes): −
extent of decomposition ([2]; pH 4.0, 80° C., 60 minutes): −
extent of decomposition ([2]; pH 4.0, 90° C., 5 minutes): −
extent of decomposition ([2]; pH 4.0, 90° C., 10 minutes): −
extent of decomposition ([2]; pH 4.0, 90° C., 20 minutes): −
extent of decomposition ([2]; pH 4.0, 90° C., 30 minutes): −
extent of decomposition ([2]; pH 4.0, 90° C., 60 minutes): −
extent of decomposition ([2]; pH 4.0, 100° C., 5 minutes): −
extent of decomposition ([2]; pH 4.0, 100° C., 10 minutes): −
extent of decomposition ([2]; pH 4.0, 100° C., 20 minutes): −
extent of decomposition ([2]; pH 4.0, 100° C., 30 minutes): −
extent of decomposition ([2]; pH 4.0, 100° C., 60 minutes): −
extent of decomposition ([2]; pH 4.0, 120° C., 5 minutes): −
extent of decomposition ([2]; pH 4.0, 120° C., 10 minutes): −
extent of decomposition ([2]; pH 4.0, 120° C., 20 minutes): −
extent of decomposition ([2]; pH 4.0, 120° C., 30 minutes): −
extent of decomposition ([2]; pH 4.0, 120° C., 60 minutes): −
extent of decomposition ([2]; pH 5.0, 65° C., 5 minutes): −
extent of decomposition ([2]; pH 5.0, 65° C., 10 minutes): −
extent of decomposition ([2]; pH 5.0, 65° C., 20 minutes): −
extent of decomposition ([2]; pH 5.0, 65° C., 30 minutes): −
extent of decomposition ([2]; pH 5.0, 65° C., 60 minutes): −
extent of decomposition ([2]; pH 5.0, 70° C., 5 minutes): −
extent of decomposition ([2]; pH 5.0, 70° C., 10 minutes): −
extent of decomposition ([2]; pH 5.0, 70° C., 20 minutes): −
extent of decomposition ([2]; pH 5.0, 70° C., 30 minutes): −
extent of decomposition ([2]; pH 5.0, 70° C., 60 minutes): −
extent of decomposition ([2]; pH 5.0, 80° C., 5 minutes): −
extent of decomposition ([2]; pH 5.0, 80° C., 10 minutes): −
extent of decomposition ([2]; pH 5.0, 80° C., 20 minutes): −
extent of decomposition ([2]; pH 5.0, 80° C., 30 minutes): −
extent of decomposition ([2]; pH 5.0, 80° C., 60 minutes): −
extent of decomposition ([2]; pH 5.0, 90° C., 5 minutes): −
extent of decomposition ([2]; pH 5.0, 90° C., 10 minutes): −
extent of decomposition ([2]; pH 5.0, 90° C., 20 minutes): −
extent of decomposition ([2]; pH 5.0, 90° C., 30 minutes): −
extent of decomposition ([2]; pH 5.0, 90° C., 60 minutes): −
extent of decomposition ([2]; pH 5.0, 100° C., 5 minutes): −
extent of decomposition ([2]; pH 5.0, 100° C., 10 minutes): −
extent of decomposition ([2]; pH 5.0, 100° C., 20 minutes): −
extent of decomposition ([2]; pH 5.0, 100° C., 30 minutes): −
extent of decomposition ([2]; pH 5.0, 100° C., 60 minutes): ±
extent of decomposition ([2]; pH 5.0, 120° C., 5 minutes): −
extent of decomposition ([2]; pH 5.0, 120° C., 10 minutes): −
extent of decomposition ([2]; pH 5.0, 120° C., 20 minutes): ±
extent of decomposition ([2]; pH 5.0, 120° C., 30 minutes): ±
extent of decomposition ([2]; pH 5.0, 120° C., 60 minutes): ±
extent of decomposition ([2]; pH 5.5, 65° C., 5 minutes): −
extent of decomposition ([2]; pH 5.5, 65° C., 10 minutes): −
extent of decomposition ([2]; pH 5.5, 65° C., 20 minutes): −
extent of decomposition ([2]; pH 5.5, 65° C., 30 minutes): −
extent of decomposition ([2]; pH 5.5, 65° C., 60 minutes): −
extent of decomposition ([2]; pH 5.5, 70° C., 5 minutes): −
extent of decomposition ([2]; pH 5.5, 70° C., 10 minutes): −
extent of decomposition ([2]; pH 5.5, 70° C., 20 minutes): −
extent of decomposition ([2]; pH 5.5, 70° C., 30 minutes): −
extent of decomposition ([2]; pH 5.5, 70° C., 60 minutes): −
extent of decomposition ([2]; pH 5.5, 80° C., 5 minutes): −
extent of decomposition ([2]; pH 5.5, 80° C., 10 minutes): −
extent of decomposition ([2]; pH 5.5, 80° C., 20 minutes): −
extent of decomposition ([2]; pH 5.5, 80° C., 30 minutes): −
extent of decomposition ([2]; pH 5.5, 80° C., 60 minutes): −
extent of decomposition ([2]; pH 5.5, 90° C., 5 minutes): −
extent of decomposition ([2]; pH 5.5, 90° C., 10 minutes): −
extent of decomposition ([2]; pH 5.5, 90° C., 20 minutes): −
extent of decomposition ([2]; pH 5.5, 90° C., 30 minutes): −
extent of decomposition ([2]; pH 5.5, 90° C., 60 minutes): ±
extent of decomposition ([2]; pH 5.5, 100° C., 5 minutes): −
extent of decomposition ([2]; pH 5.5, 100° C., 10 minutes): −
extent of decomposition ([2]; pH 5.5, 100° C., 20 minutes): −
extent of decomposition ([2]; pH 5.5, 100° C., 30 minutes): ±
extent of decomposition ([2]; pH 5.5, 100° C., 60 minutes): +
extent of decomposition ([2]; pH 5.5, 120° C., 5 minutes): −
extent of decomposition ([2]; pH 5.5, 120° C., 10 minutes): ±
extent of decomposition ([2]; pH 5.5, 120° C., 20 minutes): +
extent of decomposition ([2]; pH 5.5, 120° C., 30 minutes): +
extent of decomposition ([2]; pH 5.5, 120° C., 60 minutes): +
extent of decomposition ([2]; pH 7.0, 100° C., 5 minutes): +
extent of decomposition ([2]; pH 7.0, 100° C., 10 minutes): +
extent of decomposition ([2]; pH 7.0, 100° C., 20 minutes): ++
extent of decomposition ([2]; pH 7.0, 100° C., 30 minutes): ++
extent of decomposition ([2]; pH 7.0, 100° C., 60 minutes): +++
extent of decomposition ([2]; pH 7.0, 120° C., 5 minutes): ++
extent of decomposition ([2]; pH 7.0, 120° C., 10 minutes): +++
extent of decomposition ([2]; pH 7.0, 120° C., 20 minutes): +++
extent of decomposition ([2]; pH 7.0, 120° C., 30 minutes): +++
extent of decomposition ([2]; pH 7.0, 120° C., 60 minutes): +++
SMILES: CC(=O)N[C@H]1C(O)O[C@H](CO)[C@@H](O)[C@@H]1O[C@@H]1O[C@H](CO)[C@H](O)[C@H](O)[C@H]1O (some centres unmarked) [LNB, Lacto-N-biose]
stability of the LNB upon heating (decomposition by TLC) ([1]; pH 5.5 or less, particularly 5.0 or less): stable and underwent almost no decomposition
stability of the LNB upon heating (decomposition by TLC) ([1]; pH 6.0 or higher, particularly 7.0 or higher): significant amounts of decomposed or denatured products were observed
stability of LNB (decomposition by TLC) ([2]; pH 7.0 or 1.0): decomposition occurred even after heating for 5 minutes
stability of LNB (decomposition by TLC) ([2]; pH not less than 2.0 to not more than 5.5): stable and underwent almost no decomposition
